This note sets out measurements from publication PMC8983201 (Evidence-based Complementary and Alternative Medicine : eCAM, 2022).

Holding throughout (format): cell-based
The test system of test [1] is CC531 rat colon carcinoma cells. The test is described as follows: RRA cytotoxicity, CC531. Particulars: Colon carcinoma cell, CC531, compounds. As to the method:
(§1) 18 cancer cell lines and normal hepatocyte AML12 were used in the present study. Cancer cell lines such as drug-sensitive leukemia CCRF-CEM and multidrug-resistant P-glycoprotein-overexpressing subline CEM/ADR5000 cells, breast cancer MDA-MB-231-pcDNA cells and its resistant subline MDA-MB-231-BCRP clone 23 cells, colon cancer HCT116 p53^+/+ cells and its knockout clone HCT116 p53^−/−, glioblastoma U87MG cells, and its resistant subline U87MG.ΔEGFR [7, 23, 24]. The maintenance of HepG2 cells and AML12 hepatocytes was also published. The CC531 rat colon carcinoma cells, B16-F1, B16-F10, A2058, SK-Mel505, MaMel-80a, MV3, SkMel-28, and Mel-2A, were previously reported.
(§2) Different types of human cancer cell lines were used in this study. The resazurin reduction assay (RRA) as previously described with similar experimental conditions to those reported earlier was used to measure the cell cytotoxicity. Fluorescence was measured on an Infinite M2000 Pro™ plate reader (Tecan, Germany) using an excitation wavelength of 544 nm and an emission wavelength of 590 nm. The viability was determined based on a comparison with untreated cells. The values representing the sample's concentrations required to inhibit 50% of cell proliferation (IC50) were calculated from a calibration curve by linear regression using Microsoft Excel 2013 [33, 34].

Test [2] has as its system A2058 (BRAF-V600E heterozygous mutant). The test is described as follows: RRA cytotoxicity, A2058. The following applies: Homo sapiens; A2058, compounds. The protocol: as §1, §2
In test [3] the test system is MaMel-80a (BRAF-V600E homozygous mutant melanoma). Briefly: RRA cytotoxicity, MaMel-80a. The following applies: Homo sapiens, compounds. The protocol: as §1, §2
The subject of test [4] is Mel-2a (BRAF-V600E heterozygous mutant). The test is described as follows: RRA cytotoxicity, Mel-2a. The following applies: Homo sapiens, compounds. The protocol: as §1, §2
The next test relates to MV3 (BRAF wild type). The test is described as follows: RRA cytotoxicity, MV3. Particulars: Homo sapiens; MV3, compounds. The protocol: as §1, §2
The test system of another test is B16-F1 murine melanoma. Briefly: RRA cytotoxicity, B16-F1. Particulars: Mus musculus; B16-F1, compounds. As to the method: as §1, §2
For the next test, the system named is B16-F10 murine melanoma. The test is described as follows: RRA cytotoxicity, B16-F10. Particulars: Mus musculus; B16-F10, compounds. As to the method:
as §1, §2

The subject of test [5] is SKMel-505 BRAF wild-type melanoma cells. The test is described as follows: RRA cytotoxicity, SKMel-505. The following applies: Homo sapiens; SKMel-505, compounds. The protocol: as §1, §2
The subject of test [6] is SKMel-28 (BRAF-V600E homozygous mutant). The test is described as follows: RRA cytotoxicity, SKMel-28. Particulars: Homo sapiens, SK-MEL-28; SKMel-28, compounds. The protocol: as §1, §2
The subject of another test is tested cancer cell lines. The test is described as follows: RRA cytotoxicity, summary over the panel of tested cancer cell lines. Particulars: all cell lines tested (Table 3 panel). As to the method: as §1, §2
A further test has as its system glioblastoma U87MG cells. The test is described as follows: RRA cytotoxicity, U87MG. Particulars: Homo sapiens, U-87 MG, doxorubicin. As to the method: as §1, §2
Test [7] deals with breast cancer MDA-MB-231-pcDNA cells. The test is described as follows: RRA cytotoxicity, MDA-MB-231-pcDNA. The following applies: Homo sapiens, doxorubicin. As to the method:
as §1, §2

Another test concerns U87MG.ΔEGFR cells. Briefly: RRA cytotoxicity, U87MG.ΔEGFR. The following applies: Homo sapiens, doxorubicin. The protocol: as §1, §2
Test [8] relates to HepG2 hepatocarcinoma cells. Briefly: RRA cytotoxicity, HepG2. The following applies: Homo sapiens; HepG2, doxorubicin column of Table 2.
Method: The resazurin reduction assay (RRA) as previously described [24, 32] with similar experimental conditions to those reported earlier [26–30] was used to measure the cell cytotoxicity. Fluorescence was measured on an Infinite M2000 Pro™ plate reader (Tecan, Germany) using an excitation wavelength of 544 nm and an emission wavelength of 590 nm. The viability was determined based on a comparison with untreated cells.
Test [9] deals with MDA-MB-231-BCRP clone 23 cells. Briefly: RRA cytotoxicity, MDA-MB-231-BCRP. Particulars: Homo sapiens, doxorubicin. The protocol:
as §1, §2

A further test deals with normal AML12 hepatocytes. Briefly: RRA cytotoxicity, normal AML12 hepatocytes. Particulars: Mus musculus; AML12, doxorubicin column of Table 2. The protocol:
as §1, §2

In a further test the test system is CCRF-CEM leukemia cells. Briefly: Resazurin reduction assay (RRA) cytotoxicity, CCRF-CEM. Particulars: Homo sapiens, doxorubicin. The protocol: as §1, §2
The next test relates to HCT116 p53−/− cells. The test is described as follows: RRA cytotoxicity, HCT116 (p53−/−). Particulars: Homo sapiens, HCT-116, doxorubicin. The protocol:
as §1, §2

For `C[C@@H]1CC[C@@]2(OC1)O[C@H]1C[C@H]3[C@@H]4CC=C5C[C@@H](O)CC[C@]5(C)[C@H]4CC[C@]3(C)[C@H]1[C@@H]2C` [Compound 5, diosgenin], the IC50 in test [1] is > 100 µM; in [2], 27.1 ± 1.18 µM; in test [3] it was > 100 µM; in test [4], > 100 µM; in the test on MV3 (BRAF wild type) it was > 100 µM; in the test with B16-F1 murine melanoma, > 100 µM. Besides, the IC50 (in the test with B16-F10 murine melanoma; in test [5]; in [6]) was > 100 µM throughout.
For the compound `CC(CCC1(O)OC2CC3C4CC=C5CC(OC6OC(CO)C(O)C(O)C6O)CCC5(C)C4CCC3(C)C2C1C)COC1OC(CO)C(O)C(O)C1O` [Compound 8, 26-O-β-D-glucopyranosyl-(22R,25R)-3β, 22, 26-trihydroxyfurost-5-ene-3-O-β-D-glucopyranoside], the IC50 in the test with tested cancer cell lines is > 100 µM.
For `C[C@@H]1CC[C@@]2(OC1)O[C@H]1C[C@H]3[C@@H]4CC=C5C[C@@H](O[C@@H]6O[C@H](CO)[C@@H](O[C@@H]7O[C@H](CO)[C@@H](O)[C@H](O)[C@H]7O)[C@H](O)[C@H]6O[C@@H]6O[C@@H](C)[C@H](O)[C@@H](O)[C@H]6O)CC[C@]5(C)[C@H]4CC[C@]3(C)[C@H]1[C@@H]2C` [Compound 7, deltonin], the IC50 in the test with tested cancer cell lines is > 100 µM.
`C[C@@H]1CC[C@@]2(OC1)O[C@H]1C[C@H]3[C@@H]4CC=C5C[C@@H](O[C@@H]6O[C@H](CO)[C@@H](O)[C@H](O)[C@H]6O)CC[C@]5(C)[C@H]4CC[C@]3(C)[C@H]1[C@@H]2C` [Compound 6, diosgenin-3-O-β-D-glucopyranoside]: the IC50 in test [1] is > 100 µM; in test [2], 38.9 ± 2.78 µM; in [3], > 100 µM; in [4], > 100 µM; with MV3 (BRAF wild type), > 100 µM; with B16-F1 murine melanoma, 79.2 ± 5.39 µM. Besides, the IC50 (in the test with B16-F10 murine melanoma; in test [5]; in test [6]) was > 100 µM each time.
Take `COc1cccc2c1C(=O)c1c(O)c3c(c(O)c1C2=O)C[C@@](O)(C(=O)CO)C[C@@H]3O[C@H]1C[C@H](N)[C@H](O)[C@H](C)O1` [Doxorubicin, reference compound]: the IC50 amounted to 0.44 ± 0.23 µM in test [1]; 0.29 ± 0.04 µM in [2]; 8.66 ± 0.56 µM in test [3]; 6.63 ± 0.41 µM in [4]; 0.26 ± 0.03 µM in the test with glioblastoma U87MG cells; 7.09 ± 0.59 µM in the test on MV3 (BRAF wild type). In addition, the IC50 in test [7] came to 0.13 ± 0.01 µM; with U87MG.ΔEGFR cells, 0.98 ± 0.07 µM; in the test with B16-F1 murine melanoma, 0.22 ± 0.01 µM; in [8], 4.56 ± 0.48 µM; in test [9], 0.79 ± 0.08 µM; in the test on B16-F10 murine melanoma it was 0.24 ± 0.03 µM. The IC50 in test [5] worked out at 9.39 ± 1.01 µM; with normal AML12 hepatocytes it was 52.9 ± 4.09 µM; in the test on CCRF-CEM leukemia cells, 0.02 µM; in test [6], 2.14 ± 0.12 µM; in the test on HCT116 p53−/− cells, 1.78 ± 0.08 µM.
For the compound `CC(CCC1(O)OC2CC3C4CC=C5CC(OC6OC(CO)C(O)C(OC7OC(CO)C(O)C(O)C7O)C6OC6OC(C)C(O)C(O)C6O)CCC5(C)C4CCC3(C)C2C1C)COC1OC(CO)C(O)C(O)C1O` [Compound 3, (25R)-26-O-(β-D-galactopyranosyl)-furost-5-ene-3β, 22α, 26-trihydroxy-3-O-β-D-glucopyranosyl-(1 ⟶ 2)-[α-L-rhamnopyranosyl-(1 ⟶ 3)]-β-D-glucopyranoside], the IC50 in the test on tested cancer cell lines is > 100 µM.
